Patent US10898570B2, “Combination therapy with an anti-HER2 antibody-drug conjugate and a Bcl-2 inhibitor” (Genentech, Inc., priority 2015, dated 2021)

Tests used:
[1] = test system: Clone #17 T-DM1 resistant KPL-4 human breast cancer xenografts; experiment: xenograft study, tumor volume; assay type: in vivo, SCID beige mice
Source text: For all xenograft studies, three million T-DM1-resistant KPL-4 breast cancer cells were implanted in #2/3 mammary fat pads of female SCID-beige mice. […] The results of these xenograft studies for xenografts of various clones of the T-DM1-resistant KPL-4 breast cancer cells are shown in FIGS. 5B and 6C.

[2] = cited from earlier work
[3] = test system: KPL-4 parental cells; experiment: caspase 3/7 activation luminescence assay (Caspase-Glo); assay type: cell-based, human
Description: (§1) In the present experiment, caspase 3/7 activation luminescence assay was performed using the Caspase-Glo® reagent (Promega) essentially following manufacturer's instructions. […]

[4] = test system: T-DM1-resistant KPL-4 (HER2+) breast cancer cells; experiment: as above; assay type: cell-based, human; details: 48 hours; T-DM1 0.1 or 1 μg/mL; GDC-0199 1, 2.5 or 5 μM
Description: as §1

[5] = test system: Clone #17 T-DM1 resistant KPL-4 human breast cancer cell line; experiment: as above; assay type: cell-based; details: 48 hours; 1 ug/mL T-DM1 alone or with indicated doses of GDC-0199
Description: as §1

[6] = test system: HER2+ HCC1569 breast cancer cells (T-DM1 naive); experiment: caspase 3/7 activation luminescent in vitro apoptosis assay; assay type: cell-based; details: 24 hours; five concentrations of GDC-0199, 9 concentrations of T-DM1
Description: (§2) In the present experiment, caspase 3/7 activation luminescence assay was performed using the Caspase-Glo® reagent (Promega) essentially following manufacturer's instructions. Assays were performed in the same manner as the viability assays except that drug incubation times were 24 hours and Caspase-Glo 3/7 (Promega) was used to measure apoptosis.
(§3) Caspase 3/7 activation luminescence assay was performed as described in Example 3.

[7] = test system: HER2+ MDA-MB-361 breast cancer cells (T-DM1 naive); experiment: as above; assay type: cell-based; details: 24 hours; five concentrations of GDC-0199, 9 concentrations of T-DM1
Description: as §2, §3

[8] = test system: Bcl-2; details: T-DM1 1.25 μg/mL; cell lines BT-474, MDA_361 and ZR-75-30
Description: Western blot analysis was performed as follows: Cells were lysed in corrected FLAG elution buffer (CFEB) (19.17 mM Tris (pH 7.5), 916.7 μM MgCl2, 92.5 mM NaCl and 0.1% Triton X-100) with protease and phosphatase inhibitors (Roche); in some cases 6 M urea was added. Cleared lysates were quantitated and equal amounts of proteins were reduced, alkylated, separated by SDS-PAGE, and transferred onto PVDF membranes (Invitrogen) following standard procedures. Western blotting was performed as recommended by the respective antibody manufacturers.
The effect of treatment with T-DM1 (1.25 μg/mL) alone or in combination with GDC-0199 (1.25 μM) was studied on various T-DM1 naïve HER2+ breast cancer cell lines.

[9] = weekly dosing with 2.4 mg/kg; cited from earlier work

## CC1(C)CCC(CN2CCN(c3ccc(C(=O)NS(=O)(=O)c4ccc(NCC5CCOCC5)c([N+](=O)[O-])c4)c(Oc4cnc5[nH]ccc5c4)c3)CC2)=C(c2ccc(Cl)cc2)C1 [GDC-0199, 2-(1H-pyrrolo[2,3-b]pyridin-5-yloxy)-4-(4-((2-(4-chlorophenyl)-4,4-dimethylcyclohex-1-enyl)methyl)piperazin-1-yl)-N-(3-nitro-4-((tetrahydro-2H-pyran-4-yl)methylamino)phenylsulfonyl)benzamide]
[1]; 100 mg/kg
  tumor growth (tumor volume): no activity

## COc1cc2cc(c1Cl)N(C)C(=O)C[C@H](OC(=O)[C@H](C)N(C)C(C)=O)[C@]1(C)O[C@H]1[C@H](C)[C@@H]1C[C@@](O)(NC(=O)O1)[C@H](OC)/C=C/C=C(\C)C2 [maytansine]
[2]; 2.0 mg/m2 every 3 weeks, single dose or 3 consecutive days
  dose-limiting toxicity (DLT): gastrointestinal
[2]; at doses that could be safely delivered
  activity in the clinic: modest

## trastuzumab-MCC-DM1 [T-DM1]
[3]; 24 hours of drug treatment
  activation of caspases 3 and 7 (apoptosis): no effect
[3]; 48 hours, T-DM1 0.1 or 1 μg/mL, GDC-0199 1, 2.5 or 5 μM
  activation of caspases 3 and 7 (apoptosis): robust activation
[4]
  activation of caspases 3 and 7 (apoptosis): minimal effect
[5]
  activation of caspases 3 and 7 (apoptosis): minimal effect
[1]; T-DM1 5 mg/kg administered once, GDC-0199 100 mg/kg qd×21
  tumor growth (tumor volume): no activity
[6]
  caspase 3/7 activity (apoptosis): does not induce apoptosis
[7]
  caspase 3/7 activity (apoptosis): caspases 3 and 7 activation
[8]
  phosphorylation of Bcl-2 after treatment (Western blot): phosphorylation of Bcl-2
[9]
  anti-tumor activity: anti-tumor activity
